Measured values reported in patent US5948764A, “Methods for treatment of multiple sclerosis utilizing peptide analogues of human myelin basic protein” (Neurocrine Biosciences, Inc., priority 1997, dated 1999).
Where a SMILES comes first, the peptide text is derived from it. [ ]: non-standard residue; d: D form.

Key:
EAE [1] = details: single 250 μg dose in CFA, pertussis toxin i.v. day 0 and 2
Experimental: Similarly, mice are injected with a single, 250 μg dose of MBP (87-99) or A97 in CFA containing 500 μg of heat killed Mycobacterium. Pertussis toxin (400 ng/mouse) is injected i.v. at day 0 and day 2. Mice are assessed for disease symptoms as described above.

EAE [2] = details: rat, in vivo
[3] = tested on: lymph node cells from MBP 87-99 immunized rats; experiment: Antigen-specific lymph node cell proliferation, MBP 87-99 immunized rats; format: cell-based, Lewis rats; details: FIG. 3B, separate experiment
Experimental: Within the second assay, draining lymph node cells from Lewis rats or SJL mice injected with MBP (87-99) may be used. Preferably, this assay is used in combination with the proliferation assay using T cell lines. Briefly, Lewis rats or SJL mice are injected subcutaneously with MBP (87-99) peptide in complete Freund's adjuvant. Nine to ten days later, draining lymph node cells are isolated and single-cell suspensions are prepared. Lymph node cells are incubated with various concentrations of peptide analogues for three days in a humidified air chamber containing 6.5% CO2. After incubation, the cultures are pulsed with 1-2 μCi of [^3 H]-thymidine for 12-18 hours. Cultures are harvested on fiberglass filters and counted in a scintillation counter. Mean CPM and the standard error of the mean are calculated from data determined in triplicate cultures. […] Peptide analogues which are suitable for further screening will preferably, at concentrations of at least 10 μM, cause stimulation to a level of at least 25% of the native peptide.
Female Lewis rates, approximately six weeks old, are purchased from Harlan Sprague, Indianapolis, Ind. MBP peptides are dissolved in phosphate-buffered saline (PBS) and emulsified with an equal volume of complete Freund's adjuvant (Difco Laboratories, Inc., Detroit, Mich.) supplemented with 2 mg/ml of heat-killed Mycobacterium tuberculosis H37Ra in oil (Difco). […]

[4] = tested on: Murine MBP-specific T cell clones (AG.1H8); experiment: Proliferation of murine MBP-specific T cell clone AG.1H8; format: cell-based; details: 72 hr, [3H]-thymidine
Experimental: Murine MBP-specific T cell clones were also used as targets in proliferation assays. T cell clones (30,000 cells) were cultured for 72 hr in the presence of MBP 87-99, A97, or PLP 139-151 (myelin proteolipid protein), and irradiated, syngeneic spleen cells. For 18 hr prior to harvesting, [^3 H]-thymidine was added to each culture. Incorporated thymidine was determined.

[5] = tested on: IL-2 stimulated T cell line reactive to MBP 87-99; experiment: Cytokine production by MBP 87-99 reactive T cell line (ELISA); format: cell-based, SJL; details: 48 hr; 10 μM PLP 139-151, 3 μM A97 or 3 μM MBP 87-99
Experimental: Other suitable assays of antigen-specific T cell responses include induction of cytokine production, phosphorylation of the CD3 zeta chain, and induction of apoptosis. Briefly, for assaying cytokine production, an IL-2-stimulated T cell line, which is reactive to MBP […], is incubated with IL-2 and various MBP peptide analogues. Cytokine release is measured at 48 hr. Cytokines are measured by ELISA, or alternatively, RNA expression of cytokines may be measured by Northern blot, RNase probe protection or other standard hybridization methods. Cytokines to be assayed include IL-1 through IL-14, γ-IFN, TNF, and the like. Phosphorylation of the CD3 zeta chain is assayed in MBP 87-89-specific T cells. Briefly, cells are co-incubated with antigen-presenting cells, such as T-depleted splenocytes, which have been pulsed with MBP 87-99 or peptide analogue. Cells are then lysed, and the zeta chain is immunoprecipitated and electrophoresed on an SDS-PAGE gel. The […] may be detected with an antibody. In a third assay, apoptosis may be induced in an antigen-specific manner. For this assay, an MBP stimulated T cell line is incubated with IL-2 and various peptides. Cell loss is measured by flow cytometry or other standard method.
Cytokine production by an IL-2 stimulated T cell line, which is reactive to MBP 87-99, is measured in response to various peptides and peptide analogues. The activated T cell line is co-cultured for 48 hr with a 10-fold excess of irradiated (3000 Rads) SJL T cell-depleted spleen cells, 50 IU/ml human rIL-2 and 10 μM PLP 139-151, 3 μM A97, or 3 μM MBP 87-99. Cytokine release is measured by ELISA.

multiple sclerosis = details: in vivo; cited from earlier work

For `CC[C@H](C)[C@H](NC(=O)[C@H](CC(N)=O)NC(=O)[C@H](CCCCN)NC(=O)[C@H](Cc1ccccc1)NC(=O)[C@H](Cc1ccccc1)NC(=O)[C@H](Cc1c[nH]cn1)NC(=O)[C@@H](NC(=O)[C@@H](N)C(C)C)C(C)C)C(=O)N[C@H](C(=O)N[C@H](C(=O)N1CCC[C@H]1C(=O)N[C@@H](C)C(=O)N[C@H](C(=O)N1CCC[C@H]1C(=O)O)[C@@H](C)O)[C@@H](C)O)C(C)C` [A97] (H-VVHFFKNIVTPATP-OH), the animals developing disease (EAE [1]) was 5/5 and the “mean clinical score following injection” value (EAE [1]; FIG. 11) was “increased mean clinical score”.

With `CC[C@H](C)[C@H](NC(=O)[C@H](CC(N)=O)NC(=O)[C@H](CCCCN)NC(=O)[C@H](Cc1ccccc1)NC(=O)[C@H](Cc1ccccc1)NC(=O)[C@@H](Cc1c[nH]cn1)NC(=O)[C@@H](NC(=O)[C@@H](N)C(C)C)C(C)C)C(=O)N[C@H](C(=O)N[C@H](C(=O)N1CCC[C@H]1C(=O)N[C@@H](CCCNC(=N)N)C(=O)N[C@H](C(=O)N1CCC[C@H]1C(=O)O)[C@@H](C)O)[C@@H](C)O)C(C)C` [h88] (H-VV[dH]FFKNIVTPRTP-OH) the “induction of EAE” value (EAE [2]) was “does not induce EAE in rats”.

In the case of `CC[C@H](C)[C@H](NC(=O)[C@@H]1CCCN1C(=O)[C@@H](NC(=O)[C@@H](N)Cc1ccccc1)C(C)C)C(=O)N[C@@H](Cc1ccccc1)C(=O)N[C@H](C(=O)N[C@@H](Cc1ccc(O)cc1)C(=O)NCC(=O)N[C@@H](CCC(=O)O)C(=O)N[C@@H](CC(C)C)C(=O)N[C@@H](CCC(N)=O)C(=O)N[C@@H](CCCNC(=N)N)C(=O)N[C@@H](CCSC)C(=O)N[C@@H](CCC(N)=O)C(=O)N[C@@H](CCC(=O)O)C(=O)N[C@@H](CCCCN)C(=O)N[C@@H](CCC(=O)O)C(=O)N[C@@H](CCCNC(=N)N)C(=O)N[C@@H](CC(N)=O)C(=O)N[C@@H](CCCCN)C(=O)NCC(=O)N[C@@H](CCC(N)=O)C(=O)O)[C@@H](C)O` [motlin], the “proliferative response of lymph node cells” value [3] is reported as “not”.

In the case of “PLP 139-151: myelin proteolipid protein peptide 139-151, control peptide (CHCLGKWLGHPDK; UniProt P60202 139-151, looked up, fragment)”, the Proliferation ([4]; 10 μM peptide) is reported as 0.15 ± 0.03 CPM × 10^-3, the Proliferation ([4]; 50 μM peptide) is reported as 0.26 ± 0.12 CPM × 10^-3 and the IL-2 release [5] is reported as 1646 pg/mL. The IL-4 release [5] was 2197 pg/mL and the γ-IFN release [5] was 3073 pg/mL.

B1: IFN-γ: cytokine administered in a pilot study in MS (protein, UniProt P01579 24-161, looked up)
Interferon gamma: QDPYVKEAENLKKYFNAGHSDVADNGTLFLGILKNWKEESDRKIMQSQIVSFYFKLFKNFKDDQSIQKSVETIKEDMNVKFFNSNKKKRDDFEKLTNYSVTDLNVQRKAIHELIQVMAELSPAAKTGKRKRSQMLFRG
For B1, the “patients with a clinical exacerbation” value (multiple sclerosis) is given as 7 of 18.
